The text below walks through data of patent publication US12168008B2, “Oxabicycloheptanes for modulation of immune response” (LIXTE BIOTECHNOLOGY, INC., priority 2016, dated 2024).

SMILES strings stand for the structures.

In one assay the test system is progressive solid tumors. The assay can be described thus: Phase I study: clinical activity (RECIST 1.1). Format: in vivo, human. How it is done:
Response to treatment was assessed using RECIST version 1.1. All patients with measurable disease, who completed 2 cycles of LB-100 and had at least 1 post-baseline tumor assessment, were evaluable for efficacy. Patients receiving any LB-100 were evaluable for safety. The severity of adverse events and laboratory abnormalities is reported according to NCI-CTCAE version 4.0 and coded using Medical Dictionary for Regulatory Activities.

In assay [1] the test system is tumor infiltrating lymphocytes. Kind of assay: Flow cytometry of tumor infiltrating lymphocytes, spleen and draining lymph node in CT26-bearing mice. Format: in vivo, mouse. How it is done: The treatment effect was assessed on tumor infiltrating lymphocytes (FIGS. 23A-B). CT26 tumor-bearing mice were treated with LB-100 and/or anti-PD-1 antibodies as above. After 12 days of treatment, tumors were analyzed by FACS. […] In addition, given the known importance of PP2A in Treg, the effect of LB-100 and/or anti-PD-1 treatment was examined on the amount of Tregs present in the tumor. […] This effect is similar in degree to the effect on Tregs depletion by anti-PD-1 or the combination.
Enhanced activation of lymphocytes with combination treatment: To address the cellular mechanism mediating tumor rejection by the LB-100/aPD-1 combination, the status of the immune system in the secondary lymphoid organs and in the tumor were examined. Mice were implanted with CT26 tumors and treated with LB-100 and/or aPD-1 as described above. On day 3, after two treatments, the spleens, tumor draining lymph nodes (dLN) and tumors were harvested and analyzed by flow cytometry (FIG. 26-27). In the secondary lymphoid tissue, a greater activation of CD8+ T cells in mice treated with the combination regimen compared to controls was observed, as indicated by greater frequency of CD44+CD62L-CD8+ T cells (FIG. 26A-C). […] There was no difference in frequency of CD44+CD62L− subset in CD4+ T cells in both the spleen and dLN (FIGS. 28A and 29A). Immune check point markers, including expression of PD-1, CTLA4, TIM3 and Ox40 on CD8+ and CD4+ T cells were examined in the tumor draining lymph node and spleen (FIGS. 28 and 29).
Isolation of TILs—Mice were injected in the right thoracic flank with 0.5×10^6 CT26 cells and treated as above after tumors reached between 50-100 mm^3. After 2 treatments, mice were sacrificed and tumors excised. Tumors were subjected to mechanical disruption using a GentleMACS Dissociator (Miltenyi Biotec) in presence of enzymatic digestion using Tumor Dissociation Kit (Miltenyi Biotec). […] Cells were analyzed by flow cytometry (LSRII; BD Bioscience). […]
Background: A flow cytometer gives signals particle by particle.

A further assay relates to Naïve CD4 cells. The assay can be described thus: T cell stimulation and skewing of naive CD4 cells. Format: cell-based, mouse. Here is the method: Naïve CD4 cells were isolated from mice splenocytes and activated in vitro with anti-CD3 and CD28 in the presence of TGF-β or IL4 to induce development of Treg or Th2 CD4+ cells respectively. After 72 hours, intranuclear expressions of Foxp3 or GATA3 were quantitated by flow cytometry to determine percentage of Treg or Th2 cells respectively. […] In addition, the relative proportion of Th2 and Th1 CD4+ cells was quantified by labeling for T-bet. […] Next, the functional consequence of Th1 CD4+ cell with LB-100 treatment was explored. […] This was shown with both intracellular staining (FIG. 38D) and measurement of cytokine secretion (FIG. 38E-F).
T cell stimulation and skewing—Naïve CD4 cells were isolated from mice splenocytes (StemCell). Cells were activated for 3 days using immobilized anti-CD3 (10 ug/ml) and soluble anti-CD28 (2 ug/ml). Skewing conditions were as follows: TH1, 1 .ig/mL anti-IL4, 5 ng/mL IL2, and 10 ng/mL IL12; TH2, 1 .ig/mL anti-IFN-7, 5 ng/mL IL2, and 10 ng/mL IL4; Treg, 1 .ig/mL anti-IFNγ, and 1 ig/mL anti-IL4, and 2 ng/mL TGFβ1. Bead-based multianalyte flow immunoassays (BD Bioscience) were used to measure cytokine production in the supernatant per manufacturer's instruction. Absolute cell numbers were quantified with flow cytometry using counting beads (Biolegend).

[2] abbreviates: of 20 patients with measurable disease.

Consider `CN1CCN(C(=O)C2C(C(=O)O)[C@H]3CC[C@@H]2O3)CC1` (some centres unmarked) [LB-100], for which the “duration of partial response or stability of disease” value in the assay with progressive solid tumors (atypical carcinoid of the lung, 0.83 mg/m^2) came to 5 cycles; with progressive solid tumors (breast cancer, 1.25 mg/m^2), 4 cycles; in the assay with progressive solid tumors (chondrosarcoma, 3.1 mg/m^2), 8 cycles; in the assay on progressive solid tumors (fibrosarcoma, started at 3.1 mg/m^2, two dose reductions), 12 cycles; with progressive solid tumors (malignant thymoma, 1.75 mg/m^2), 8 cycles; in the assay on progressive solid tumors (ovarian cancer, 1.75 mg/m^2) it was 6 cycles. Further, the “duration of partial response or stability of disease” value in the assay with progressive solid tumors (pancreatic cancer, 0.83 mg/m^2) was 15 cycles; with progressive solid tumors (testicular cancer, 1.25 mg/m^2) it was 5 cycles. Further, the “no progression of indicator lesion(s)” value in the assay on progressive solid tumors (setting [2]) turned out to be 16 patients. Further, the “significant increases in the size of indicator lesion(s) by RECIST criteria” value in the assay on progressive solid tumors (setting [2]) was 3 patients. Moreover, in the assay with progressive solid tumors (pancreatic carcinoma, noted after 10 cycles, maintained 5 more cycles, of 20 patients), the partial response entry was “One and one”. In assay [1] (after 12 days of treatment, control 14.7), the “Tregs in the tumor” value came out at 2.1%. Besides, in assay [1] (day 3, after two treatments, control 13.0), the “CD44+CD62L-CD8+ T cells in the spleen” value is 16.6%. The “PD-1 expression in CD4+ and CD8+ TILs” value in assay [1] (mouse, in vivo) is “did not further alter PD-1 expression”. Moreover, the “frequency of GATA3 expressing cells relative to Tbet expressing cells” value with Naïve CD4 cells is reported as “decreased significantly”. Also, in the assay on Naïve CD4 cells (72 hours, dose dependent), the “induction of Foxp3 by TGF-β” value is on record as “significantly impaired”. Moreover, in the assay on Naïve CD4 cells (72 hours, dose dependent), the “induction of GATA3 by IL-4” value is listed as “significantly impaired”. In addition, the “TNF-α and IL2 secretion” value with Naïve CD4 cells (Th1 and Th2 conditions) is recorded as “increased”. In addition, the IFN-γ expression entry in the assay on Naïve CD4 cells (Th1 and Th2 skewing conditions) is “dose dependent increase”. For the same compound, the “Secretion of IL4” value in the assay with Naïve CD4 cells (Th2 conditions) is “decreased”.
